Test results as given in PubChem BioAssay (NCI).
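Following 48 hours of exposure in 96-well plates, responses at five concentrations were used to interpolate endpoints linearly. TGI: concentration producing complete growth inhibition.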

Experiments:
Test in all cases: inhibition of tumour cell growth, NCI panel, 48 h
[1] = test system: 786-0 renal
[2] = test system: A498 renal
[3] = test system: ACHN renal
[4] = test system: BT-549 breast
[5] = test system: CAKI-1 renal
[6] = test system: CCRF-CEM leukemia
[7] = test system: COLO 205 colon
[8] = test system: DU-145 prostate
[9] = test system: EKVX NSCLC
[10] = test system: HCT-116 colon
[11] = test system: HCT-15 colon
[12] = test system: HL-60(TB) leukemia
[13] = test system: HOP-62 NSCLC
[14] = test system: HS 578T breast
[15] = test system: HT29 colon
[16] = test system: IGROV1 ovarian
[17] = test system: K-562 leukemia
[18] = test system: KM12 colon
[19] = test system: LOX IMVI melanoma
[20] = test system: M14 melanoma
[21] = test system: MALME-3M melanoma
[22] = test system: MCF7 breast
[23] = test system: MDA-MB-231 breast
[24] = test system: MDA-MB-435
[25] = test system: MDA-N
[26] = test system: MOLT-4 leukemia
[27] = test system: NCI-H226 lung
[28] = test system: NCI-H23 lung
[29] = test system: NCI/ADR-RES ovarian
[30] = test system: OVCAR-3 ovarian
[31] = test system: OVCAR-5 ovarian
[32] = test system: OVCAR-8 ovarian
[33] = test system: PC-3 prostate
[34] = test system: RPMI-8226 leukemia
[35] = test system: RXF 393 renal
[36] = test system: SF-268 CNS
[37] = test system: SF-539 CNS
[38] = test system: SK-MEL-2 melanoma
[39] = test system: SK-MEL-28 melanoma
[40] = test system: SK-MEL-5 melanoma
[41] = test system: SK-OV-3 ovarian
[42] = test system: SN12C renal
[43] = test system: SNB-19 CNS
[44] = test system: SR leukemia
[45] = test system: SW-620 colon
[46] = test system: T-47D breast
[47] = test system: TK-10 renal
[48] = test system: U251 CNS
[49] = test system: UACC-257 melanoma
[50] = test system: UACC-62 melanoma
[51] = test system: UO-31 renal
[52] = test system: A549 NSCLC
[53] = test system: HCC-2998 colon
[54] = test system: NCI-H460 lung
[55] = test system: NCI-H522 lung
[56] = test system: OVCAR-4 ovarian
[57] = test system: SF-295 CNS
[58] = test system: SNB-75 CNS

Measured: TGI

O=C(c1ccco1)N(C(=S)OCc1ccccn1)c1ccccc1
8.58 µM: [44]
79.2 µM: [21]
not listed: [52] | [53] | [54] | [55] | [56] | [57] | [58]
> 100 µM: all other assays above

O=C(O)c1ccccc1/C=N\NC1=NCCCCN1
not listed: [12] | [35] | [39]
> 100 µM: all other assays above
